In US9714247B2, “Multiple kinase pathway inhibitors” (Mannkind Corporation, priority 2012, dated 2017):
pEC50, pIC50: −log10 of the molar value. Read-outs that look alike come from different tables or passages of the source.

Experiments:
PC3 = experiment: Apoptosis by flow cytometry (Annexin V / 7AAD); format: cell-based; details: Table 5, 6 hours
[1] = system: PLCγ2 phosphorylation in Ramos cells; experiment: PLCγ2 phosphorylation by flow cytometry; format: cell-based, human
Procedure, shortened: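 Ramos cells starved 18 h in 1% FBS, pretreated with inhibitor 2 h, then stimulated with anti-IgM (10 ug/ml final) plus 3.3 mM H2O2 for 2 min, then cross-linking F(ab) (10 ug/ml) plus H2O2 for 8 min. Fixed, permeabilized cells stained with PE anti-phospho-PLCγ2 (Tyr1217 or Tyr759), dead cells gated out; ED50 from geometric mean fluorescence over four inhibitor concentrations.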

[2] = system: phosphorylation of SFKs in Ramos cells; experiment: SFK phosphorylation (Tyr 416) by Western blotting; format: cell-based, human; details: pretreated 2 hours
Method: Ramos cell lysates from stimulated and unstimulated cells were analyzed for the levels of phosphorylated SRC family members. As described in Example 82 (above), cells were pretreated for 2 hours with an amino naphthyridinones and then stimulated with anti-IgM antibody and H2O2, protein lysates were prepared, quantified and used for Western blotting. A commercially available antibody that detects Src phosphorylated at Tyr 416 (Cell Signalling) and may cross-react with other Src family members such as Lyn, Fyn, Lck, Yes and Hck when phosphorylated at equivalent sites was used for Western blot analysis. The molecular weights of SFK family members are quite similar (in the 55-60 kDa range) and different family members cannot be resolved by the conditions used for the Western blot. […] The procedure can be similarly adapted for flow cytometric analysis as with the PLC-γ2 assay in Example 82. Ramos cells were incubated with Compound 1 for 2 hrs in RPMI media with 5% FBS prior to stimulation stimulated with H2O2/anti-IgM/F(Ab) for 10 minutes. Cells were evaluated by FACS analysis using anti-pSRC antibody and FITC-conjugated goat anti-rabbit secondary antibody following overnight storage at 4° C. in BD perm/wash buffer.

DoHH2 = experiment: Apoptosis by flow cytometry (Annexin V / 7AAD); format: cell-based, human; details: for Percent Apoptosis DOHH2: Table 5, 6 hours
Excerpt: Activation of Tec family kinases including BTK, and/or Src kinase family members, regulates cell survival and cell death in normal B cells, lymphomas, and solid tumors. Apoptosis is a programmed cell death characterized by specific changes in cell morphology. […] Staurosporine was used as a positive control for apoptosis. […] Table 6 illustrates that several amino naphthyridinones induce significant apoptosis in DoHH2 cells.

DoHH-2 tumor xenograft = format: in vivo
Src [3] = target: T1, Src (Homo sapiens (Human), UniProt P12931); experiment: biochemical
T1 sequence (P12931 whole entry, looked up): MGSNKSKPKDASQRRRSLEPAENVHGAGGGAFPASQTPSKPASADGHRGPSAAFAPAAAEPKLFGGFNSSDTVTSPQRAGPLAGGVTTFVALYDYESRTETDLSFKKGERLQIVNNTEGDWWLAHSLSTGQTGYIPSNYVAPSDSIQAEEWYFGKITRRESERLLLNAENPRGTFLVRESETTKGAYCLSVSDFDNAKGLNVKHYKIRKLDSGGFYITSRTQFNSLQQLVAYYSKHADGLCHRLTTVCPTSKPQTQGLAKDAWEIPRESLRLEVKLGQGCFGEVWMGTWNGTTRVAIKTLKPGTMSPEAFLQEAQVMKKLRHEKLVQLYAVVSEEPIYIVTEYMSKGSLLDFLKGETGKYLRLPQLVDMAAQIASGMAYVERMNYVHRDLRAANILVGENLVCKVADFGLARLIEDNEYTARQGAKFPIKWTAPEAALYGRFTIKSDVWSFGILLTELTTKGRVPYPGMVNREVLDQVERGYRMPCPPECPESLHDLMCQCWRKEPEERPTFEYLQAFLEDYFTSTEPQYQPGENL

[4] = system: PLC-γ2 phosphorylation in DoHH-2; experiment: PLCγ2 phosphorylation by flow cytometry; format: cell-based, human; details: DoHH-2, increasing concentrations (data not shown)
Method: PLCγ2 phosphorylation was also assessed by flow cytometry. Cells were similarly stimulated and following stimulation, Cytofix buffer (Becton Dickinson) was added, cells were centrifuged and the cell pellets incubated on ice with Phosflow perm buffer III (Becton Dickinson). These cell pellets were washed with Perm/Wash buffer (Becton Dickinson); resuspended and labeled for flow cytometry analysis in a staining mixture containing Perm/Wash buffer and PE-labeled anti-phosphoPCLγa2 (Tyr1217) antibody (Becton Dickinson). The samples were washed with Perm/Wash buffer and analyzed on a FACS Calibur flow cytometer using CellQuest Pro software. As mentioned for the Western blot experiments, phosphorylation of PLCγ2 at Tyr1217 along with Tyr753, Tyr759 and Tyr1197 is correlated with increased PLCγ2 activity. The readout for BTK network signaling was inhibition of phosphorylation of PLCγ2. Cells were gated to exclude dead or dying cells. Fluorescence signals from the antibody staining were plotted in logarithmic units and data was analyzed using Cellquest Pro software. […] An ED50 was calculated based on the geometric mean of fluorescence intensity observed for treatment for four different concentrations of the inhibitors (see Table 7 and FIG. 6). […] Thus treatment with amino naphthyridinones inhibits PLCγ2 phosphorylation consistent with inhibition of BTK and/or LYN activity.

[5] = system: phosphorylation of SFKs in Ramos cells; experiment: SFK phosphorylation (Tyr 416) by flow cytometry; format: cell-based, human
Procedure, shortened: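 Ramos cells pretreated with compound 2 hrs in RPMI with 5% FBS, then stimulated 10 minutes with H2O2/anti-IgM. Phospho-Tyr 416 SFK detected by flow cytometry with an antibody that may cross-react across Src family members, plus fluorescent secondary antibody.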

Ramos = experiment: Apoptosis by flow cytometry (Annexin V / 7AAD); format: cell-based, human; details: Table 5, 6 hours
DoHH2 cells = details: treated 24 hours
[6] = system: PLCγ2 phosphorylation in Ramos cells; experiment: PLCγ2 phosphorylation by Western blotting; format: cell-based, human; details: anti-IgM/H2O2 stimulation, Tyr1217
Method: Ramos cells were cultured in RPMI 1640 media with 10% FBS and were starved overnight (18 h) in 1% FBS containing media and on the next day pretreated with inhibitor for 2 h before stimulation. Cells were stimulated to induce BTK network dependent signal transduction pathways using mouse anti-human IgM (final concentration 10 ug/ml; Invitrogen) antibodies and 3.3 mM H2O2 mixture for 2 minutes followed by F(Ab) fragment that cross-linked the anti-IgM antibody (final concentration 10 ug/ml), and 3.3 mM H2O2 for 8 minutes. Cell lysates were prepared in lysis buffer containing protease and phosphatase inhibitors, quantified using the BCA protein assay kit (Pierce) and used for Western blotting. Antibodies specifically targeted to the molecules of interest, PLCγ2 phosphorylated at Tyr1217 and total PLCγ2, (Cell Signaling Technology) were used in a standard Western blotting procedure.
Phosphorylation of PLCγ2 at Tyr1217 along with Tyr753, Tyr759 and Tyr1197 is correlated with increased PLCγ2 activity. The readout for BTK network signaling was inhibition of phosphorylation of PLCγ2 induced by the anti-IgM treatment.

Src [7] = target: T1, Src; details: read-out: Src IC50

CCN(CC)CCOc1ccc(Nc2cc3c(cn2)cc(-c2ccccc2)c(=O)n3CC)nc1 [Compound 1, 7-[5-(2-Diethylamino-ethoxy)-pyridin-2-ylamino]-1-ethyl-3-phenyl-1H-[1, 6]naphthyridin-2-one]
Percent Apoptosis PC3 (PC3; 1 uM): 7.86%
Percent Apoptosis PC3 (PC3; 2 uM): 6.5%
Percent Apoptosis PC3 (PC3; 5 uM): 11.74%
Percent Apoptosis PC3 (PC3; 10 uM): 6.35%
inhibition at 0.3 µM ([1]; Homo sapiens, 0.3 uM, flow cytometry, anti-phospho PLCγ2 (Tyr759), read-out: pPLCγ % inhibition): 63%
pEC50 ([1]; Homo sapiens, flow cytometry, anti-phospho PLCγ2 (Tyr1217), four concentrations, read-out: Inhibition of phosphorylation of PLC-γ2 EC50): 6.42
Inhibition of PLC-γ2 phosphorylation (flow cytometry) ([1]; increasing concentrations): dose dependent decrease in PLC-γ2 phosphorylation
Inhibition of phosphorylation of SFKs (Western blot) [2]: dose-dependent decrease of phosphorylation of SFKs
Percent Apoptosis DOHH2 (DoHH2; 1 uM): 4.43%
Percent Apoptosis DOHH2 (DoHH2; 2 uM): 29.84%
Percent Apoptosis DOHH2 (DoHH2; 5 uM): 21.76%
Percent Apoptosis DOHH2 (DoHH2; 10 uM): 37.52%
Percent Apoptosis at 2 uM (DoHH2; Table 6, DOHH2, 2 uM): 26.2%
Percent Apoptosis at 5 uM (DoHH2; Table 6, DOHH2, 5 uM): 32.58%
Effect on tumor growth compared with 70 mg/kg PCI-32765 (DoHH-2 tumor xenograft; 62.5 mg/kg): more marked effect
Mortality (DoHH-2 tumor xenograft; 62.5 mg/kg group, day 17): 2 animals
Estimated maximal tolerated dose (DoHH-2 tumor xenograft; IP, SCID mice): ~62.5 mg/kg/day
Tumor growth inhibition (DoHH-2 tumor xenograft; highest dose 62.5 mg/kg/day IP, day 15, 19 and 21): significantly inhibited tumor growth
pIC50 (Src [3]): 6.00 to 7.00
Inhibition of PLC-γ2 phosphorylation (flow cytometry) [4]: dose dependent decrease in PLC-γ2 phosphorylation
inhibition at 0.3 µM ([5]; Homo sapiens, 0.3 uM, flow cytometry, SFK phosphorylated at Tyr 416, read-out: pSRC % inhibition): 31%
Inhibition of SFK phosphorylation (flow cytometry) ([5]; incubated 2 hrs): dose-dependent inhibition of SFK phosphorylation
Percent Apoptosis Ramos (Ramos; 1 uM): 35.71%
Percent Apoptosis Ramos (Ramos; 2 uM): 38.94%
Percent Apoptosis Ramos (Ramos; 5 uM): 39.09%
Percent Apoptosis Ramos (Ramos; 10 uM): 51.63%
Effect on Cell Cycle (DoHH2 cells): G1 Arrest
Inhibition of PLCγ2 phosphorylation (Western blot) [6]: dose dependent decrease in PLCγ2 phosphorylation

CCn1c(=O)c(-c2ccccc2)cc2cnc(Nc3ncc(CCN(C)C)s3)cc21 [Compound 2, 7-[5-(2-Dimethylamino-ethyl)-thiazol-2-ylamino]-1-ethyl-3-phenyl-1H-[1,6]naphthyridin-2-one]
pIC50 (Src [7]): < 5.30
